Assay results from patent US20250129334A1, “LINEAGE SPECIFICATION DURING STEM CELL TRANSITION” (Amniotics AB, priority 2021, published 2025).
“Also recorded” adds a separate entry of the source. Like-named read-outs stand apart in the source and are kept apart here.

How the values were obtained:
HE cells = test: HE subculture with metabolic regulators, flow cytometry of hematopoietic output; format: cell-based, human
From the text: The RB9-CB1 human iPSC line (Woods, N.-B. et al. Brief report: efficient generation of hematopoietic precursors and progenitors from human pluripotent stem cell lines. Stem Cells 29, 1158-1164 (2011)) was co-cultured with mouse embryonic fibroblasts (MEFs, Millipore), passaged every six days and processed to form embryoid bodies (EBs) as described previously (Guibentif, C. et al. Single-Cell Analysis Identifies Distinct Stages of Human Endothelial to-Hematopoietic Transition. Cell Reports 19, 10-19 (2017)). The differentiation protocol used in this study was previously described (Ditadi, A. & Sturgeon, C. M. Directed differentiation of definitive hemogenic endothelium and hematopoietic progenitors from human pluripotent stem cells. Methods 101, 65-72 (2016)), however, small modifications were made to induce both primitive and definitive hematopoiesis, as indicated below and in FIG. 6, a. Newly-formed EBs were first kept in SFD medium supplemented with 1 ng/ml Activin A (on days 0-2) and 3 μM CHIR99021 (on day 2 only). At day 3, media was switched to “Day 3-SP34” medium supplemented with 1 ng/ml Activin A (on day 3 only) and 3 μM CHIR99021 (on day 3 only) until day 6. On day 6, media was replaced by “Day 6-SP34” medium, until day 8. In some experiments where indicated, to obtain a higher yield of HSC-like cells, EBs were kept until day 10: in this case, EBs were plated onto Matrigel (8 μg/cm2, Corning)-coated dishes on day 8 and kept until day 10. Media was changed every day, except on days 5 and 7. On day 8 or 10 (as indicated), EBs were singularized with 5-6 rounds of 5-minute incubations with TryPLE Express (Thermo Fisher Scientific). CD34^+ cells were selected using the human CD34 MicroBead kit (Miltenyi Biotec) and stained with CD34-FITC, CD73-PE, VECad-PerCPCy5.5, CD38-PC7, CD184-APC, CD45-AF700, CD43-APCH7, GPA-eF450, CD90-BV605 and the viability marker 7AAD in order to sort HE (CD34^+CD43^−CXCR4^−CD73^−CD90^+VECad^+), EHT (CD34^+CD43^intCXCR4^−CD73^−CD90^+VECad^+) and HSC-like (CD34^+CD43^+CD90^+CD38^−) cells, according to previously described markers (Guibentif, C. et al. Single-Cell Analysis Identifies Distinct Stages of Human Endothelial to-Hematopoietic Transition. Cell Reports 19, 10-19 (2017); Ditadi, A. et al. Human definitive haemogenic endothelium and arterial vascular endothelium represent distinct lineages. Nat Cell Biol 17, 580-591 (2015); and Choi, K.-D. et al. Identification of the Hemogenic Endothelial Progenitor and Its Direct Precursor in Human Pluripotent Stem Cell Differentiation Cultures. Cell Reports 2, 553-567 (2012)).
Sorted HE (40,000), EHT (30,000) and HSC-like (5-20,000) cells were plated onto Matrigel (16 μg/cm2, Corning)-coated 96-well flat bottom plates in HE medium with 1% penicillin-streptomycin and kept in a humidified incubator at 37° C., 5% C02, 4% 02 overnight. The following day (day 0), wells were washed twice with PBS and fresh HE medium was added, together with 2-DG (1 mM), UK5099 (10 μM), DCA (3 mM or 10 mM), TSA (60 nM), TCP (300 nM), ACSS2i (5 μM), C646 (10 μM), CP-640186 (5 μM) or Atorvastatin (0.5 μM), where indicated. Media was changed and drugs were added every 2 days and cells were kept in a humidified incubator at 37° C., 5% CO2, 20% O2 for 6-7 days. Pictures were taken using an Olympus IX70 microscope equipped with a CellSens DP72 camera and CellSens Standard 1.6 software (Olympus). For single cell subcultures, single HE cells were directly sorted with a BD FACSAriaIII onto OP9-DL1 stroma in flat-bottom 96-well plates with 120 μl OP9 medium (OptiMEM medium with Glutamax (Invitrogen) with 10% FCS, 1% penicillin-streptomycin solution (Thermo Fisher Scientific) and 1% 2-mercaptoethanol (Invitrogen)) with SCF, IL-6, IL-11, IGF1 and EPO, and with or without 10 μM UK, or 3 mM or 10 mM DCA. The cells were kept in a humidified incubator at 37° C., 5% CO2, 4% O2 and media was replaced every 4 days. […]

iPSC-CD34+ = test: NK cell cytotoxic degranulation (CD107) with or without K562 co-culture; format: cell-based, human; settings: for degranulated NK cells (CD3-CD56+CD16+CD107+ cells) / increase in degranulated NK cells vs untreated control / basal degranulation: absence of K562; for degranulated NK cells (CD3-CD56+CD16+CD107+ cells) / increase in degranulated NK cells vs untreated control: DCA 10 mM, CP 2.5 μM, cholesterol 0.5x; for basal degranulation: vs ctrl; for level of degranulated NK cells when exposed to K562 cells: co-culture with K562
From the text: NK cell anti-tumour activity can occur via cytotoxic degranulation. CD107 is a marker that is present in the cytotoxic vesicles of NK cells, and so is not expressed on the cell surface of inactivated NK cells. However, upon NK cell activation and degranulation, the CD107 target becomes detectable on the cell surface. Therefore, the level of CD107 detected on NK cells correlates with cytotoxic degranulation. In this assay, several exemplary metabolic regulators were used to assess cytotoxic degranulation in a co-culture assay with K562 cells (an exemplary cancer cell model). As a negative control, iPSC-CD34^+ untreated with a metabolic regulator were used, in which a basal level of 3.27% of degranulated NK cells (CD3^−CD56^+CD16^+CD107^+ cells) were observed (FIG. 16A, top panel).

[1] = system: HE, EHT and HSC-like cells; settings: 100 μM FCCP; all cell types
Method: On days 3 and 6 of subculture, cells were collected after a 2-minute incubation at 37° C. with StemPro Accutase Cell Dissociation Reagent and stained with CD34-FITC, CD14-PE, CD33-PC7, CD11b-APC, CD45-AF700, CD43-APCH7, GPA-eF450, CD90-BV605 and the viability marker 7AAD and fluorescence was measured on a BD LSRII. To measure mitochondrial activity, cells were incubated with Tetramethylrhodamine ethyl ester (TMRE, 20 nM) for 30 minutes at 37° C. Negative controls were incubated with 100 μM FCCP for 30 minutes at 37° C., prior to TMRE staining. […] III and MFI levels—MFI FMO were calculated. […] III. To measure proliferation, cells were processed with the CellTrace Violet (CTV) kit according to manufacturer's instructions (10-minute incubation) and fluorescence was measured on a BD LSRFortessa. To measure EdU incorporation, HE cells were assessed on day 1 or 2 of subculture after 24 h EdU pulses, using Click-iT EdU Flow Cytometry Cell Proliferation Assay (Thermo Fisher Scientific, C10424), according to manufacturer's instructions. Flow cytometry outputs were analyzed on FlowJo Software, with initial gatings on SSC-A/FSC-A, FSC-H/FSC-A, SSC-H/SSC-A and 7-AAD to exclude doublets and dead cells in all experiments.

HSC-like cells = test: HSC-like cell subculture with metabolic regulators, flow cytometry; format: cell-based, human; settings: day 3, 2-DG 1 mM
From the text: The RB9-CB1 human iPSC line (Woods, N.-B. et al. Brief report: efficient generation of hematopoietic precursors and progenitors from human pluripotent stem cell lines. Stem Cells 29, 1158-1164 (2011)) was co-cultured with mouse embryonic fibroblasts (MEFs, Millipore), passaged every six days and processed to form embryoid bodies (EBs) as described previously (Guibentif, C. et al. Single-Cell Analysis Identifies Distinct Stages of Human Endothelial to-Hematopoietic Transition. Cell Reports 19, 10-19 (2017)). The differentiation protocol used in this study was previously described (Ditadi, A. & Sturgeon, C. M. Directed differentiation of definitive hemogenic endothelium and hematopoietic progenitors from human pluripotent stem cells. Methods 101, 65-72 (2016)), however, small modifications were made to induce both primitive and definitive hematopoiesis, as indicated below and in FIG. 6, a. Newly-formed EBs were first kept in SFD medium supplemented with 1 ng/ml Activin A (on days 0-2) and 3 μM CHIR99021 (on day 2 only). At day 3, media was switched to “Day 3-SP34” medium supplemented with 1 ng/ml Activin A (on day 3 only) and 3 μM CHIR99021 (on day 3 only) until day 6. On day 6, media was replaced by “Day 6-SP34” medium, until day 8. […]

EHT cells = test: EHT cell subculture with metabolic regulators, flow cytometry; format: cell-based, human; settings: EHT cells; day 3; 2-DG 1 mM
From the text: The RB9-CB1 human iPSC line (Woods, N.-B. et al. Brief report: efficient generation of hematopoietic precursors and progenitors from human pluripotent stem cell lines. Stem Cells 29, 1158-1164 (2011)) was co-cultured with mouse embryonic fibroblasts (MEFs, Millipore), passaged every six days and processed to form embryoid bodies (EBs) as described previously (Guibentif, C. et al. Single-Cell Analysis Identifies Distinct Stages of Human Endothelial to-Hematopoietic Transition. Cell Reports 19, 10-19 (2017)). The differentiation protocol used in this study was previously described (Ditadi, A. & Sturgeon, C. M. Directed differentiation of definitive hemogenic endothelium and hematopoietic progenitors from human pluripotent stem cells. Methods 101, 65-72 (2016)), however, small modifications were made to induce both primitive and definitive hematopoiesis, as indicated below and in FIG. 6, a. Newly-formed EBs were first kept in SFD medium supplemented with 1 ng/ml Activin A (on days 0-2) and 3 μM CHIR99021 (on day 2 only). At day 3, media was switched to “Day 3-SP34” medium supplemented with 1 ng/ml Activin A (on day 3 only) and 3 μM CHIR99021 (on day 3 only) until day 6. On day 6, media was replaced by “Day 6-SP34” medium, until day 8. In some experiments where indicated, to obtain a higher yield of HSC-like cells, EBs were kept until day 10: in this case, EBs were plated onto Matrigel (8 μg/cm2, Corning)-coated dishes on day 8 and kept until day 10. Media was changed every day, except on days 5 and 7. On day 8 or 10 (as indicated), EBs were singularized with 5-6 rounds of 5-minute incubations with TryPLE Express (Thermo Fisher Scientific). […]

[2] = day 6, single agent vs control (1-AA 4 mM, TCP 300 nM, C646 10 μM, CP 5 μM, shRNAs vs shScr)

## N[C@@H]1C[C@H]1c1ccccc1 (racemic) [TCP, Tranylcypromine]
HE cells
  HE-derived CD43+CD45+ (CD45+) cell population: more
  increase in CD43+GPA+ cell frequency following UK5099 treatment when LSD1 is blocked or downregulated: could not detect an increase
  myeloid differentiation (CD43+CD45+CD33+CD11b+): specifically increased myeloid differentiation

## CC(C)c1c(C(=O)Nc2ccccc2)c(-c2ccccc2)c(-c2ccc(F)cc2)n1CC[C@@H](O)C[C@@H](O)CC(=O)O [atorvastatin]
HE cells; day 3, Ato 0.5 μM with DCA 3 mM
  DCA effect on CD43+CD45+ cells under co-treatment: abrogated the effect of DCA

## CC(C)CCC[C@@H](C)[C@H]1CC[C@H]2[C@@H]3CC=C4C[C@@H](O)CC[C@]4(C)[C@H]3CC[C@]12C [cholesterol]
iPSC-CD34+
  degranulated NK cells (CD3-CD56+CD16+CD107+ cells): 7.47 % of the population
  increase in degranulated NK cells vs untreated control: more than 2 fold
  basal degranulation: higher than ctrl
  level of degranulated NK cells when exposed to K562 cells: further increased; also recorded: except for Cholesterol treated cells

## N#CC(C#N)=NNc1ccc(OC(F)(F)F)cc1 [FCCP, Carbonyl cyanide 4-(trifluoromethoxy)phenylhydrazone]
[1]
  TMRE signal: abrogated the TMRE signal

## CC1=NN(c2ccc(C(=O)O)cc2)C(=O)/C1=C/C1=CC=C(c2cc(C)c(C)cc2[NH+]([O-])O)C1 (stereo not shown) [C646]
HE cells; [2]
  HE-derived CD43+CD45+ (CD45+) cell population: did not have an effect

## O=CC[C@@H](O)[C@H](O)[C@H](O)CO [2-DG, 2-Deoxy-D-glucose]
HSC-like cells
  proliferation rate (CellTrace Violet): significantly reduced
HE cells; day 3, 2-DG 1 mM
  CD43+GPA+ cell population: less than 50 % of the control
HE cells; day 3 of subculture, 2-DG 1 mM
  CD43+ cell output from HE cells: significantly reduced
HE cells; day 6, 2-DG 1 mM
  CD43+CD45+ cell population: less than 50 % of the control
EHT cells
  proliferation rate (CellTrace Violet): significantly reduced

## CC(/C=C/C(=O)NO)=C\[C@@H](C)C(=O)c1ccc(N(C)C)cc1 [TSA, Trichostatin A]
HE cells; day 3, TSA 60 nM
  emergence of CD43+ hematopoietic cells: impaired the emergence

## COCCNC(=O)Nc1ccc2nc(-c3cccs3)c(-c3cccs3)nc2c1 [ACSS2i]
HE cells; day 6 of HE subculture, ACSS2i 5 μM with DCA 3 mM
  DCA effect on CD43+CD45+ cells under co-treatment: did not perturb the DCA effect

## O=C(c1c2ccccc2cc2ccccc12)N1CCC(N2CCCC(C(=O)N3CCOCC3)C2)CC1 (stereo not shown) [CP]
iPSC-CD34+
  degranulated NK cells (CD3-CD56+CD16+CD107+ cells): 18.3 % of the population
  increase in degranulated NK cells vs untreated control: more than 5 fold
  basal degranulation: higher than ctrl
  level of degranulated NK cells when exposed to K562 cells: further increased; also recorded: increased degranulation
HE cells; [2]
  HE-derived CD43+CD45+ (CD45+) cell population: had the same effect as DCA
